What all share (format): in vivo
Series [1] has as its system Green Peach Aphid (Myzus persicae, MYZUPE). Kind of series: Bioassay on Green Peach Aphid (GPA), foliar spray on cabbage seedlings. Conditions: 72 h, 200 ppm foliar spray on cabbage seedlings, three days, Abbott corrected % control, read-out: GPA % Control (or Mortality) rating. As to the method:
Certain molecules disclosed in this document were tested against GPA using procedures described in the following example. In the reporting of the results, the “GPA & YFM Rating Table” was used (See Table Section).
Cabbage seedlings grown in 3-inch pots, with 2-3 small (3-5 cm) true leaves, were used as test substrate. The seedlings were infested with 20-50 GPA (wingless adult and nymph stages) one day prior to chemical application. Four pots with individual seedlings were used for each treatment. Test molecules (2 mg) were dissolved in 2 mL of acetone/methanol (1:1) solvent, forming stock solutions of 1000 ppm test molecule.
The stock solutions were diluted 5× with 0.025% Tween 20 in water to obtain the solution at 200 ppm test molecule. A hand-held aspirator-type sprayer was used for spraying a solution to both sides of […] leaves until runoff. Reference plants (solvent check) were sprayed with the diluent only containing 20% by volume of acetone/methanol (1:1) solvent. Treated plants were held in a holding room for three days at approximately 25° C. and ambient relative humidity (RH) prior to grading. Evaluation was conducted by counting the number of live aphids per plant under a microscope. Percent control was measured using Abbott's correction formula (W. S. Abbott, “A Method of Computing the Effectiveness of an Insecticide” J. Econ. Entomol. 18 (1925), pp. 265-267) as follows. Corrected % Control=100*(X−Y)/X where X=No. of live aphids on solvent check plants and Y=No. of live aphids on treated plants. The results are indicated in the table entitled “Table ABC: Biological Results” (See Table Section).

Series [2] has as its system Yellow Fever Mosquito (Aedes aegypti, AEDSAE). As to conditions: about 1 day-old larvae, 96-well plate from 4000 ppm DMSO master, 3 days at room temperature. In short, it runs like this:
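Compound stocks at 4000 ppm in DMSO were diluted with 90:10 water/acetone, and 15 μL aliquots were dispensed into six replicate plates. About 1-day-old larvae in liver-powder water were added per well. Plates were covered and held at room temperature for 3 days before each well was scored for mortality.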

Series [3] concerns Beet Armyworm (Spodoptera exigua, LAPHEG). Kind of series: Bioassay on Beet Armyworm (BAW), 128-well diet tray assay. Conditions: 168 h, 50 μg/cm^2 on artificial diet, second instar larvae, 25° C., five to seven days, average of eight wells, read-out: BAW % Control (or Mortality) rating. In short, it runs like this:
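In a 128-well format, eight wells per compound received a surface dose of 50 μg/cm^2 on artificial diet. After drying, each well got one to five second instar larvae, held at 25° C. with 14:10 photoperiod. Mortality percentages after five to seven days were averaged.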

The test system of series [4] is Cabbage Looper (Trichoplusia ni, TRIPNI). Kind of series: Bioassay on Cabbage Looper (CL), 128-well diet tray assay. As to conditions: 168 h, 50 μg/cm^2 on artificial diet, second instar larvae, 25° C., five to seven days, average of eight wells, read-out: CL % Control (or Mortality) rating. The gist of the method:
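Diet-incorporation-free surface assay: 50 μg/cm^2 compound in acetone-water (90:10), dried on diet; 1–5 2nd-instar larvae/well; 8 wells; vented cover; 25° C., 14:10 L:D, 5–7 d; % mortality averaged over wells.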

What is called mortality is the share of the test organisms that died.

In the case of `N#CC1(NC(=O)c2cc(NC(=O)[C@H]3[C@H](c4cc(Cl)cc(Cl)c4)C3(Cl)Cl)ccc2Cl)CCC1` (relative stereo) [Molecule F12, trans-2-Chloro-N-(1-cyanocyclobutyl)-5-(2,2-dichloro-3-(3,5-dichlorophenyl)cyclopropanecarboxamido)benzamide], in series [1], the mortality at 200 ppm fell in the range of 0 to 80%. Besides, the “YFM % Control (or Mortality) rating” value in series [2] was “A (80-100)”. Besides, the mortality at 50 µg/cm2 in series [3] and in series [4] was 50 to 100% throughout.

Turning to `N#CC1(NC(=O)c2cc(NC(=O)[C@H]3[C@H](c4cc(Cl)c(Cl)c(Cl)c4)C3(Cl)Cl)ccc2Cl)CCC1` (relative stereo) [Molecule F13, trans-2-Chloro-N-(1-cyanocyclobutyl)-5-(2,2-dichloro-3-(3,4,5-trichlorophenyl)cyclopropanecarboxamido)benzamide], in series [1], the mortality at 200 ppm fell in the range of 0 to 80%. Also, the “YFM % Control (or Mortality) rating” value in series [2] was “A (80-100)”. The mortality at 50 µg/cm2 in series [3] and in series [4] was 50 to 100% throughout.

Take `O=C(NC1CSC1)c1cc(NC(=O)[C@H]2[C@H](c3cc(Cl)cc(Cl)c3)C2(Cl)Cl)ccc1Cl` (relative stereo) [Molecule F15, trans-2-Chloro-5-(2,2-dichloro-3-(3,5-dichlorophenyl)cyclopropanecarboxamido)-N-(thietan-3-yl)benzamide]: the mortality at 200 ppm in series [1] was in the range of 80 to 100%. In addition, the “YFM % Control (or Mortality) rating” value in series [2] is “A (80-100)”. In addition, the mortality at 50 µg/cm2 in series [3] and in series [4] was 50 to 100% throughout.

Turning to `O=C(NC1CSC1)c1cc(NC(=O)[C@H]2[C@H](c3ccc(Cl)c(Cl)c3)C2(Cl)Cl)ccc1Cl` (relative stereo) [Molecule F16, trans-2-Chloro-5-(2,2-dichloro-3-(3,4-dichlorophenyl)cyclopropanecarboxamido)-N-(thietan-3-yl)benzamide], in series [1], the mortality at 200 ppm lay in the range of 80 to 100%. Moreover, the “YFM % Control (or Mortality) rating” value in series [2] was “A (80-100)”. For the same molecule, the mortality at 50 µg/cm2 in series [3] and in series [4] was 50 to 100% throughout.

As for `O=C(NC1CSC1)c1cc(NC(=O)[C@H]2[C@H](c3cc(Cl)c(Cl)c(Cl)c3)C2(Cl)Cl)ccc1Cl` (relative stereo) [Molecule F17, trans-2-Chloro-5-(2,2-dichloro-3-(3,4,5-trichlorophenyl)cyclopropanecarboxamido)-N-(thietan-3-yl)benzamide], in series [1], the mortality at 200 ppm lay within 80 to 100%. Also, the “YFM % Control (or Mortality) rating” value in series [2] is “A (80-100)”. Also, the mortality at 50 µg/cm2 in series [3] and in series [4] was 50 to 100% each time.

As to `N#CC1(NC(=O)c2cc(NC(=O)[C@H]3[C@H](c4cccc(C(F)(F)F)c4)C3(Cl)Cl)ccc2Cl)CC1` (relative stereo) [Molecule F18, trans-2-Chloro-N-(1-cyanocyclopropyl)-5-(2,2-dichloro-3-(3-(trifluoromethyl)phenyl)cyclopropanecarboxamido)benzamide], the mortality at 200 ppm in series [1] was in the range of 80 to 100%. Further, in series [2], the “YFM % Control (or Mortality) rating” value is given as “B (More than 0-Less than 80)”. The mortality at 50 µg/cm2 in series [3] and in series [4] was 50 to 100% in each case.

Regarding `O=C(NC1CC(F)(F)C1)c1cc(NC(=O)[C@H]2[C@H](c3cccc(C(F)(F)F)c3)C2(Cl)Cl)ccc1Cl` (relative stereo) [Molecule F19, trans-2-Chloro-5-(2,2-dichloro-3-(3-(trifluoromethyl)phenyl)cyclopropanecarboxamido)-N-(3,3-difluorocyclobutyl)benzamide], the mortality at 200 ppm in series [1] is 80 to 100%. The “YFM % Control (or Mortality) rating” value in series [2] is reported as “B (More than 0-Less than 80)”. The mortality at 50 µg/cm2 in series [3] and in series [4] was 50 to 100% each time.

In the case of `O=C(NC1CC(F)(F)C1)c1cc(NC(=O)[C@H]2[C@H](c3ccc(OC(F)(F)F)c(Cl)c3)C2(Cl)Cl)ccc1Cl` (relative stereo) [Molecule F21, trans-2-Chloro-5-(2,2-dichloro-3-(3-chloro-4-(trifluoromethoxy)phenyl)cyclopropanecarboxamido)-N-(3,3-difluorocyclobutyl)benzamide], the mortality at 200 ppm in series [1] is 80 to 100%. For the same molecule, in series [2], the “YFM % Control (or Mortality) rating” value is “A (80-100)”. The mortality at 50 µg/cm2 in series [3] and in series [4] was 50 to 100% in each case.

As for `CN(C(=O)c1cc(NC(=O)[C@H]2[C@H](c3cc(Cl)cc(Cl)c3)C2(Cl)Cl)ccc1Cl)C1CC(F)(F)C1` (relative stereo) [Molecule F32, trans-2-Chloro-5-(2,2-dichloro-3-(3,5-dichlorophenyl)cyclopropanecarboxamido)-N-(3,3-difluorocyclobutyl)-N-methylbenzamide], in series [1], the mortality at 200 ppm lay within 80 to 100%. Moreover, in series [2], the “YFM % Control (or Mortality) rating” value is listed as “A (80-100)”. Further, the mortality at 50 µg/cm2 in series [3] and in series [4] was 50 to 100% each time.

`CN(C(=O)c1cc(NC(=O)[C@H]2[C@H](c3cc(Cl)c(Cl)c(Cl)c3)C2(Cl)Cl)ccc1Cl)C1CC(F)(F)C1` (relative stereo) [Molecule F34, trans-2-Chloro-5-(2,2-dichloro-3-(3,4,5-trichlorophenyl)cyclopropanecarboxamido)-N-(3,3-difluorocyclobutyl)-N-methylbenzamide]: in series [1], the mortality at 200 ppm is 0 to 80%. For the same molecule, in series [2], the “YFM % Control (or Mortality) rating” value is recorded as “A (80-100)”. Further, the mortality at 50 µg/cm2 in series [3] and in series [4] was 50 to 100% throughout.

As for `O=C(NC1CCC1)c1cc(NC(=O)[C@H]2[C@H](c3ccc(Cl)c(Cl)c3)C2(Cl)Cl)ccc1Cl` (relative stereo) [Molecule F41, trans-2-Chloro-N-cyclobutyl-5-(2,2-dichloro-3-(3,4-dichlorophenyl)cyclopropanecarboxamido)benzamide], the mortality at 200 ppm in series [1] lay in the range of 80 to 100%. In series [2], the “YFM % Control (or Mortality) rating” value was “A (80-100)”. The mortality at 50 µg/cm2 in series [3] and in series [4] was 50 to 100% each time.

With `Cc1cc([C@H]2[C@H](C(=O)Nc3ccc(Cl)c(C(=O)NC4CC(F)(F)C4)c3)C2(Cl)Cl)cc(Cl)c1Cl` (relative stereo) [Molecule F50, trans-2-Chloro-5-(2,2-dichloro-3-(3,4-dichloro-5-methylphenyl)cyclopropanecarboxamido)-N-(3,3-difluorocyclobutyl)benzamide], the mortality at 200 ppm in series [1] was 0 to 80%. The “YFM % Control (or Mortality) rating” value in series [2] is on record as “D (No activity noticed in this bioassay)”. The mortality at 50 µg/cm2 in series [3] and in series [4] was 50 to 100% throughout.

As for `O=C(NC1CC(F)(F)C1)c1cc(NC(=O)[C@H]2[C@H](c3cc(Cl)cc(Cl)c3)C2(Cl)Br)ccc1Cl` (relative stereo) [Molecule F71, trans-5-(2-Bromo-2-chloro-3-(3,5-dichlorophenyl)cyclopropane-1-carboxamido)-2-chloro-N-(3,3-difluorocyclobutyl)benzamide], the mortality at 200 ppm in series [1] was in the range of 80 to 100%. The “YFM % Control (or Mortality) rating” value in series [2] is “B (More than 0-Less than 80)”. Also, the mortality at 50 µg/cm2 in series [3] and in series [4] was 50 to 100% each time.

As for `N#Cc1cc(Cl)cc([C@H]2[C@H](C(=O)Nc3ccc(Cl)c(C(=O)NC4(C#N)CC4)c3)C2(Cl)Cl)c1` (relative stereo) [Molecule F78, trans-2-Chloro-N-(1-cyanocyclopropyl)-5-(2,2-dichloro-3-(3-chloro-5-cyanophenyl)cyclopropane-1-carboxamido)benzamide], the mortality at 200 ppm in series [1] fell in the range of 0 to 80%. For the same molecule, the “YFM % Control (or Mortality) rating” value in series [2] is recorded as “D (No activity noticed in this bioassay)”. Moreover, the mortality at 50 µg/cm2 in series [3] and in series [4] was 50 to 100% throughout.

Take `O=C(NC1CC(F)(F)C1)c1cc(NC(=O)[C@H]2[C@H](c3ccc(F)c(Cl)c3)C2(Cl)Cl)ccc1Cl` (relative stereo) [PF7, trans-2-Chloro-5-(2,2-dichloro-3-(3-chloro-4-fluorophenyl)cyclopropane-1-carboxamido)-N-(3,3-difluorocyclobutyl)benzamide]: in series [1], the mortality at 200 ppm lay within 80 to 100%. Also, the “YFM % Control (or Mortality) rating” value in series [2] was “D (No activity noticed in this bioassay)”. In addition, the mortality at 50 µg/cm2 in series [3] and in series [4] was 50 to 100% throughout.

The values above are taken from patent publication US9795139B2, “Molecules having pesticidal utility, and intermediates, compositions, and processes, related thereto” (priority 2015, dated 2017).
